# Results taken from ChEMBL document CHEMBL1145703, “Flavonol and chalcone ester glycosides from Bidens leucantha” (J Nat Prod, 1997).
# The source made the active and inactive calls. No cut-off for these calls is given here.
# What was measured:
# [1] = test system: Human immunodeficiency virus 1; test: Antiviral activity against HIV1 MN infection in human C8166 cells after 2 days by syncitium-forming assay; format: functional, organism-based
# [2] = test system: Human immunodeficiency virus 1; test: Antiviral activity against HIV1 MN infected in human C8166 cells assessed as reduction in Ag gp120 production by ELISA; format: functional, organism-based; conditions: Human immunodeficiency virus 1, MN
# [3] = Cytotoxicity against human C8166 cells by XTT-formazan method; format: cell-based; conditions: read-out: TC50 (the source's name)
# [4] = Selectivity index, ratio of EC50 for HIV1 MN infection in human C8166 cells to TC50 for human C8166 cells; format: functional
# [5] = test system: C8166; test: Cytotoxicity against human C8166 cells at 250 ug/ml by XTT-formazan method; format: cell-based
EC50 [2],SMILES,Activity [1],CC50 [3],Selectivity Index [4],Activity [5]
–,COc1c(-c2ccc(O)c(O)c2)oc2cc(O[C@@H]3O[C@H](CO[C@@H]4O[C@@H](C)[C@H](O)[C@@H](O)[C@H]4O)[C@@H](O)[C@H](O)[C@H]3O)cc(O)c2c1=O,inactive,–,–,–
–,COc1ccc(-c2oc3cc(O[C@@H]4O[C@H](CO[C@@H]5O[C@@H](C)[C@H](O)[C@@H](O)[C@H]5O)[C@@H](O)[C@H](O)[C@H]4O)cc(O)c3c(=O)c2OC)cc1O,inactive,–,–,–
–,COc1ccc(-c2oc3cc(O[C@@H]4O[C@H](CO[C@@H]5O[C@@H](C)[C@H](O)[C@@H](O)[C@H]5O[C@@H]5O[C@@H](C)[C@H](O)[C@@H](O)[C@H]5O)[C@@H](O)[C@H](O)[C@H]4O)cc(O)c3c(=O)c2OC)cc1O,inactive,–,–,–
10 µg/mL,CC(=O)O[C@H]1[C@H](O)[C@@H](O)[C@H](Oc2ccc(C(=O)/C=C/c3ccc(O)c(O)c3)c(O)c2O)O[C@@H]1COC(=O)/C=C/c1ccc(O)cc1,–,100 µg/mL,>10,–
–,COc1ccc(-c2oc3cc(O[C@@H]4O[C@H](CO[C@@H]5O[C@@H](C)[C@H](O)[C@@H](O)[C@H]5O)[C@@H](O)[C@H](O)[C@H]4O[C@@H]4O[C@H](CO)[C@@H](O)[C@H](O)[C@H]4O)cc(O)c3c(=O)c2OC)cc1O,inactive,–,–,–
50 µg/mL,O=C(/C=C/c1ccc(O)cc1)OC[C@H]1O[C@@H](Oc2ccc(C(=O)/C=C/c3ccc(O)cc3)c(O)c2O)[C@H](O)[C@@H](O)[C@@H]1O,–,250 µg/mL,12.5,–
20 µg/mL,CC(=O)OC[C@H]1O[C@@H](Oc2ccc(C(=O)/C=C/c3ccc(O)c(O)c3)c(O)c2O)[C@H](O)[C@@H](OC(C)=O)[C@@H]1OC(C)=O,–,–,12.5,Non-toxic
